Measurements: patent publication US9687569B2, “Theranostic nanoparticle and methods for making and using the nanoparticle” (priority 2012, dated 2017)

Assays:
C6-ADR cells [1] = experiment: Fluorescence and confocal imaging of intracellular DOX; format: cell-based, rat
Procedure: The internalization pathway of free DOX and NP-DOX were investigated by labeling endosomal compartments of cells with calcein after incubation with cells for 4 h.
C6-ADR cells were plated at 500,000 cells per well in 6-well plates containing 22×22 mm glass cover slips the night before treatment. Cells were treated with 1000 ng/mL free DOX or NP-DOX with equimolar concentration of DOX in 2 mL fully supplemented DMEM for 4 hrs before cells were washed three times with PBS and 2 mL fresh fully supplemented media added. After 24 hrs, cells were washed three times with PBS, and fixed in 4% formaldehyde (Polysciences Inc., Warrington, Pa.) for 30 min. Cell membranes were stained with wheat germ agglutinin, Alexa Fluor 488 conjugates (WGA-AF488, Invitrogen, Carlsbad, Calif.) following the manufacturer's protocol. The cover slips were then mounted on microscope slides using Prolong Gold anti-fade solution (Invitrogen, Carlsbad, Calif.) containing DAPI for cell nuclei staining. Images were acquired on an inverted fluorescent microscope (Nikon Instruments, Melville, N.Y.) with the appropriate filters using a Nikon Ril Color Cooled Camera System and 60× oil objective Lens. For internalization pathway experiment, cells were treated with DOX or NP-DOX in the presence of 0.25 mM calcein for 4 hrs. […] DOX and calcein uptake were analyzed using confocal microscopy (Zeiss 510 Meta).

C6-ADR cells [2] = experiment: Intracellular DOX quantification; format: cell-based, rat; details: for intracellular concentration of DOX: 1000 ng/mL DOX
Procedure: Concurrently, intracellular concentration of DOX was determined (FIG. 6B) by UV analysis.

Compound: COc1cccc2c1C(=O)c1c(O)c3c(c(O)c1C2=O)C[C@@](O)(C(=O)CO)C[C@@H]3O[C@H]1C[C@H](N)[C@H](O)[C@H](C)O1.Cl [free DOX, Doxorubicin.HCl]
- intracellular DOX fluorescence (C6-ADR cells [1]; C6-ADR cells treated 4 h, imaged 24 h after initial incubation): minimal fluorescence
- intracellular localization of DOX signal (calcein-labeled endosomes) (C6-ADR cells [1]; C6-ADR cells, 4 h incubation, confocal): partially colocalized with nucleus and partially localized in cytoplasma
- intracellular concentration of DOX (C6-ADR cells [2]; 24 h after treatment): 0.13±0.01 pg/cell
- decrease of intracellular DOX concentration (C6-ADR cells [2]; by 24 h after initial exposure): 91%
- intracellular concentration of DOX (C6-ADR cells [2]; four hours after treatment): 1.49±0.05 pg/cell
